Values of other authors in patent US20230021879A1, “SYNTHESIS OF 3 -RNA OLIGONUCLEOTIDES” (ALNYLAM PHARMACEUTICALS, INC., priority 2019, published 2023).

Molecular target: P-glycoprotein 1 (P-gp) (Homo sapiens, UniProt P08183)
Conditions: earlier studies

Chain of P-glycoprotein 1 (P-gp) (P08183 whole entry, species assumed): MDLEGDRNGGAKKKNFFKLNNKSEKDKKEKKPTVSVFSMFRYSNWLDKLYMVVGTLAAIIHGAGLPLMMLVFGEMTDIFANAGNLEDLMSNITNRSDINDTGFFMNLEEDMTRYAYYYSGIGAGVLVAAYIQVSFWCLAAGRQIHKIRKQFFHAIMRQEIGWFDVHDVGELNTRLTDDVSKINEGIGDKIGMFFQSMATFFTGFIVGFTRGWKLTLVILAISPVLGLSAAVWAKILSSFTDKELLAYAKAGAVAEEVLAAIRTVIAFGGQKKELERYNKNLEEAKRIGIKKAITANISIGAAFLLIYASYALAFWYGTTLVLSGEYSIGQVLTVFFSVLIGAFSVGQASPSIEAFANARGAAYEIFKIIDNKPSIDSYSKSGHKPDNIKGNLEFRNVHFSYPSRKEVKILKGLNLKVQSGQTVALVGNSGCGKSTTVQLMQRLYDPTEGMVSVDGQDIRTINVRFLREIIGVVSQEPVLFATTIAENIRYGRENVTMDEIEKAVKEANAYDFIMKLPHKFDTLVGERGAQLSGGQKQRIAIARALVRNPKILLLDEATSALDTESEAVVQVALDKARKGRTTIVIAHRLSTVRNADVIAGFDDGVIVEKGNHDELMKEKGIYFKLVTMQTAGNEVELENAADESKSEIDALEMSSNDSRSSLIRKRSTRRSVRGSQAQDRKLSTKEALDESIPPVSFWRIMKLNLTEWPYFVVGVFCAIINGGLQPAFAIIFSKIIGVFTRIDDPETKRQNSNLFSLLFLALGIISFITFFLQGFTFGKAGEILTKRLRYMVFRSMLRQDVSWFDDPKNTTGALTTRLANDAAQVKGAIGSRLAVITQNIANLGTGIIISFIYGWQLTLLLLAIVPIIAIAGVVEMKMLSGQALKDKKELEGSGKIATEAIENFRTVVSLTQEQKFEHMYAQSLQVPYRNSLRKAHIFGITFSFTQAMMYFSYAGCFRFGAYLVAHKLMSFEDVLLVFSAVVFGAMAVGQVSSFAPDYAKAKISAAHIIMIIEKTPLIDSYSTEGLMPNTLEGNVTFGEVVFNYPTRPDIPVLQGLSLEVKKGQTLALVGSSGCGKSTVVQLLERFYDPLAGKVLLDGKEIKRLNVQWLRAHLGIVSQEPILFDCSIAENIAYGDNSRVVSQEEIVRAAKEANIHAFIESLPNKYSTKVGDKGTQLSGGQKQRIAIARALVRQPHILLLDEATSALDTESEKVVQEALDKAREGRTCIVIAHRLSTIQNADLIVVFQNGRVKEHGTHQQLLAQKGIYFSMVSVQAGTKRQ

Question: Which P-gp substrate status does the source give for `C[C@@H]1O[C@@H](O[C@H]2C[C@](O)(C(=O)CO)Cc3c(O)c4c(c(O)c32)C(=O)c2ccccc2C4=O)[C@H](I)[C@H](O)[C@H]1O` [Annamycin, (7S,9S)-7-(((2R,3R,4R,5R,6S)-4,5-dihydroxy-3-iodo-6-methyltetrahydro-2H-pyran-2-yl)oxy)-6,9,11-trihydroxy-9-(2-hydroxyacetyl)-7,8,9,10-tetrahydrotetracene-5,12-dione] here?
Answer: Its P-gp substrate status is “poor substrate”.
